Results on 10 molecules are retold here after publication PMC11151938 (Nature, 2024).

Assay [1] addresses T1, RIPK3 (Homo sapiens, UniProt Q9Y572). Particulars: cited from earlier work.
The test system of assay [2] is RIPK3. Particulars: cited from earlier work.
Assay [3] deals with influenza. The note with it: mice and humans ref 36, 37; cited from earlier work.
The subject of assay [4] is Ripk3−/− MEFs. The assay is described as follows: RIPK1 kinase-driven cell death in Ripk3−/− MEFs. The assay is classed as cell-based, mouse. The note with it: TNFα + TAK1 inhibitor.
Assay [5] concerns primary MEFs infected with PR8. In words: IAV-induced necroptosis in primary MEFs. The assay is classed as cell-based, mouse. Particulars: PR8 MOI 2, zVAD 50 μM.
Assay [6] has as its target T1, RIPK3. The assay is described as follows: In vitro RIPK3 kinase assay. The assay is classed as biochemical.
For assay [7], the system named is necroptosis in cells. The assay is described as follows: Necroptosis blockade in cells. Particulars: read-out: blocking necroptosis in cells IC50. The assay is classed as cell-based.
Assay [8] relates to panel of 90 non-mutant human kinases. The note with it: FDA-approved TKIs, comparison values; cited from earlier work.

T1 sequence (Q9Y572 1-313): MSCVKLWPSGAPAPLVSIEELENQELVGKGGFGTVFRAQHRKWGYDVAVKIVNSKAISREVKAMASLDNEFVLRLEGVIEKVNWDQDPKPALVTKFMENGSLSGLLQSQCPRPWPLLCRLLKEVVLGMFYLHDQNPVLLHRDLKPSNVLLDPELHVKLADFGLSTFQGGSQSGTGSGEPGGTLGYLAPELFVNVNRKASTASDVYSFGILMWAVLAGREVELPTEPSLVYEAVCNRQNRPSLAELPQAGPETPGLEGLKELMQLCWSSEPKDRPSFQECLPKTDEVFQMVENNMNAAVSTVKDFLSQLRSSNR

Regarding `CNC(=O)c1ccc2c(c1)ncn2-c1ccc(CC(=O)OC(C)(C)C)cc1` [GSK’840], in assay [1], the “activity against recombinant RIPK3 in vitro” value is on record as “potent activity”. For the same molecule, in assay [2], the activity in cells result is “unexpectedly modest activity”.
`CCOC(=O)C1=C[C@@H](OC(CC)CC)[C@H](NC(C)=O)[C@@H](N)C1` [oseltamivir]: the “time of administration after infection beyond which therapeutic benefit is lost” value in assay [3] is listed as “more than 48 h”.
For the molecule `N#Cc1cc(N2CCC(C(=O)N3N=CC[C@H]3c3cc(F)cc(F)c3)CC2)ncn1` [GSK’547], the “activity against RIPK1 kinase-driven cell death” value in assay [4] is given as “able to block such death”.
Turning to `CCCS(=O)(=O)Nc1cc(-c2cc(-c3ccc(N4CCNCC4)cc3)cnc2N)cc(F)c1OC` [CSLP37], the IAV-triggered necroptosis result in assay [5] was “neither the ABL inhibitor imatinib (Gleevec) nor the selective RIPK2 inhibitor CSLP37[32] blocked IAV-triggered necroptosis”.
In general, IC50 refers to the point on the concentration scale where inhibition reaches its midpoint. `CCN(CC)CCOc1ccc(Nc2ncc3cc(-c4c(Cl)cccc4Cl)c(=O)n(C)c3n2)cc1` [PD166285]: the concentration for half-maximal inhibition (IC50) was 1080 nM in assay [6] and 2880 nM in assay [7].
As for `Cc1nc(Nc2ncc(C(=O)Nc3c(C)cccc3Cl)s2)cc(N2CCN(CCO)CC2)n1` [Dasatinib], the “S(35) selectivity score” value in assay [8] is recorded as 0.28.
Take `Cc1cc(-c2cnc(N)c3c(-c4ccc5scnc5c4)csc23)n(C)n1` [GSK’843]: in assay [1], the “activity against recombinant RIPK3 in vitro” value was “potent activity”. Besides, the activity in cells result in assay [2] is “unexpectedly modest activity”.
Turning to `CC(C)S(=O)(=O)c1ccc2nccc(Nc3ccc4scnc4c3)c2c1` [GSK’872], the activity in cells entry in assay [2] is “unexpectedly modest activity”.
Take `CNC(=O)c1cc(Oc2ccc(NC(=O)Nc3ccc(Cl)c(C(F)(F)F)c3)cc2)ccn1` [Sorafenib]: in assay [8], the “S(35) selectivity score” value is 0.22.
On to `Cc1ccc(NC(=O)c2ccc(CN3CCN(C)CC3)cc2)cc1Nc1nccc(-c2cccnc2)n1` [imatinib], for which the IAV-triggered necroptosis entry in assay [5] was “neither the ABL inhibitor imatinib (Gleevec) nor the selective RIPK2 inhibitor CSLP37[32] blocked IAV-triggered necroptosis”.
